Experimental data as given in US20200405699A1, “TREATING SICKLE CELL DISEASE WITH A PYRUVATE KINASE R ACTIVATING COMPOUND” (FORMA Therapeutics, Inc., priority 2018, published 2020).

Tests used:
Assay type in all cases: biochemical
PKR-R510Q = PKR-R510Q (Homo sapiens, UniProt P30613, R510Q); test: Luminescence Assay (Kinase Glo Plus), PKR R510Q; settings: read-out: AC50 (PKRR510Q)
Method: (§1) For each tested compound, the ability to activate PKR was determined using the following Luminescence Assay. The effect of phosphorylation of adenosine-5′-diphosphate (ADP) by PKR is determined by the Kinase Glo Plus Assay (Promega) in the presence or absence of FBP (D-fructose-1,6-diphosphate; BOC Sciences, CAS: 81028-91-3) as follows. Unless otherwise indicated, all reagents are purchased from Sigma-Aldrich. All reagents are prepared in buffer containing 50 mM Tris-HCl, 100 mM KCl, 5 mM MgCl2, and 0.01% Triton X100, 0.03% BSA, and 1 mM DTT. Enzyme and PEP (phosphoenolpyruvate) are added at 2× to all wells of an assay-ready plate containing serial dilutions of test compounds or DMSO vehicle. Final enzyme concentrations for PKR(wt), PKR(R510Q), and PKR(G332S) are 0.8 nM, 0.8 nM, and 10 nM respectively. Final PEP concentration is 100 μM. The Enzyme/PEP mixture is incubated with compounds for 30 minutes at RT before the assay is initiated with the addition of 2×ADP and KinaseGloPlus. Final concentration of ADP is 100 μM. […] For assays containing FBP, that reagent is added at 30 μM upon reaction initiation. Reactions are allowed to progress for 45 minutes at RT until luminescence is recorded by the BMG PHERAstar FS Multilabel Reader. The compound is tested in triplicate at concentrations ranging from 42.5 μM to 2.2 nM in 0.83% DMSO. AC50 measurements were obtained by the standard four parameter fit algorithm of ActivityBase XE Runner (max, min, slope and AC50). The AC50 value for a compound is the concentration (μM) at which the activity along the four parameter logistic curve fit is halfway between minimum and maximum activity.
(§2) As set forth in Tables 2 and 3 below and in FIG. 1, AC50 values are defined as follows: ≤0.1 μM (+++); >0.1 μM and ≤1.0 μM (++); >1.0 μM and ≤40 μM (+); >40 μM (0).

PKR(G332S) = PKR(G332S) (Homo sapiens, UniProt P30613, G332S); test: Luminescence Assay (Kinase Glo Plus), PKR G332S; settings: read-out: AC50 (PKRG332S)
PKR(G332S), sequence (P30613 whole entry G332S): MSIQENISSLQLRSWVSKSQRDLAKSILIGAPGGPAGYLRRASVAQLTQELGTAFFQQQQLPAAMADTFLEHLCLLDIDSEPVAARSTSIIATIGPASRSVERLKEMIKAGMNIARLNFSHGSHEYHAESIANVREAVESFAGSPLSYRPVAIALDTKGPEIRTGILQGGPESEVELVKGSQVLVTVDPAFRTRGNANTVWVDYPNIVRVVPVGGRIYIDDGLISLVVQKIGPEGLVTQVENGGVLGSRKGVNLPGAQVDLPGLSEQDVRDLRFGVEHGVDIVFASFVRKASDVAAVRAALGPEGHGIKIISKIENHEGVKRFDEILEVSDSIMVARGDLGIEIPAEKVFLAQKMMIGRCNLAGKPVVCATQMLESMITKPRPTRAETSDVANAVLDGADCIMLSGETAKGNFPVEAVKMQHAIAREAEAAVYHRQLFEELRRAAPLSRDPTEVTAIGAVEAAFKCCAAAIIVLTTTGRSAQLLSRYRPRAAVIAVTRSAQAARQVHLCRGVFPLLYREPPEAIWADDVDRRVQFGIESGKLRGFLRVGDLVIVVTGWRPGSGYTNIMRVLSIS
Method: as §1, §2

PKR(wt) = PKR(wt) (Homo sapiens, UniProt P30613); test: Luminescence Assay (Kinase Glo Plus), PKR wild type
PKR(wt), sequence (P30613 whole entry): as the sequence (P30613 whole entry G332S) above, with S332G counted along it
Method: as §1, with “AC50 measurements were obtained by the standard four parameter fit algorithm of ActivityBase XE Runner (max, min, slope and AC50). The AC50 value for a compound is the concentration (μM) at which the activity along the four parameter logistic curve fit is halfway between minimum and maximum activity.” left out

PKR-R510Q, sequence (P30613 whole entry R510Q): as the sequence (P30613 whole entry G332S) above, with S332G, R510Q counted along it

| AC50 (PKR-R510Q) [µM] | AC50 (PKR(G332S)) [µM] | AC50 (PKR(wt)) [µM] | SMILES |
| --- | --- | --- | --- |
| > 40 | > 40 | – | O=C([C@H](CO)c1ccccc1)N1CC2=C(C1)CN(C(=O)[C@H](CO)c1ccccc1)C2 [Compound 7] |
| 1 to 40 | 1 to 40 | 1 to 40 | O=C([C@@H](CO)c1ccccc1)N1CC2=C(C1)CN(S(=O)(=O)c1cnc3c(c1)OCCO3)C2 (single isomer, unassigned) [Compound 2] |
